Tested on: normal human dermal fibroblasts (NHDF)
Assay: Gene expression in NHDF, full transcriptome analysis with Affymetrix U219 microarray
Assay type: cell-based
Conditions: NHDF, 7.5 mg/ml, 24 h
Description: In the present study, the transcriptional effects (modulation of gene expression) of compounds 1, 2, 3 and 4 were evaluated on normal human dermal fibroblasts (NHDF) under basal conditions.
More specifically, the comparative analysis of the different transcriptomic profiles was performed using an Affymetrix GeneAtlas platform and the human “full transcriptome” U219 chip, which includes 36,000 transcripts and variants.
Fibroblasts were seeded in 24-well plates and cultured in culture medium for 24 hours. The medium was then replaced by assay medium and cells were incubated for further 24 hours. The medium was replaced by assay medium containing or not (control) the test compounds at different concentrations and the cells were preincubated for 24 hours. All experimental conditions were performed in triplicate. At the end of incubation, the culture supernatants were removed and the cells were washed in a phosphate buffered saline (PBS) solution and immediately frozen at −80° C.
Before RNA extraction, the replicates were pooled. Total RNA was extracted from each sample using TriPure Isolation Reagent® according to the supplier's instructions. The amount and quality of total RNA were evaluated for all samples using capillary electrophoresis (Bioanalyzer 2100, Agilent technologies). From each RNA, a labeled and amplified anti-sens RNA (aRNA) was obtained using GeneChip 3′IVT PLUS Kit (Affymetrix). For each labeled and amplified aRNA sample the profiles were evaluated before and after fragmentation using capillary electrophoresis (Bioanalyzer 2100, Agilent technologies). Hybridization of fragmented aRNA onto Affymetrix® U219 chip (36,000 transcripts and variants) was performed in the GeneAtlas™ fluidics Affymetrix® hybridization station for 20 hours at 45° C. U219 chip was analyzed using the GeneAtlas™ Imaging station (Affymetrix®—resolution 2 μm) to generate fluorescence intensity data.
Expression Console and Quality controls: data were normalized with the Expression Console (Affymetrix®) software using RMA algorithm. Then a quality control of the labeling and the hybridization was performed. Hybridization and labeling steps successfully passed the quality controls for these experiments.
Data reduction, Excel file description: once normalized with Expression Console, data were transferred into a Microsoft Excel® file in order to go further into data reduction.
Calculation and tools were added in order to rank and sort data, and finally to support data interpretation. Detection thresholds in terms of fold change were defined and applied on normalized data.
Results are considered and presented or commented per gene (and not probe). A probe set is a collection of probes designed to interrogate a given sequence of a gene. For data interpretation, the most important relative expression value obtained with one probe is considered to be representative of the corresponding gene. The file contains the following data: • Relative expression (RE) for each sample, • Fold change calculation, • Gene information.

[1] = relative expression adjusted to detection limit (<20)

C[C@H](NC(=O)[C@@H](N)CCCCNCC(F)(F)[C@]1(O)O[C@H](CO)[C@H](O)[C@H](O)[C@H]1O)C(=O)O [Compound 2]
Fold change, APOD (vs control): 0.50
Fold change, DHCR24 (vs control): 2.13
Fold change, HACD1 (vs control): 2.01
Fold change, NEU1 (vs control): 2.18
Fold change, SERINC2 (vs control): 2.09
Fold change, TM7SF2 (vs control): 2.18
Fold change, TXNRD1 (vs control): 2.07
Fold change, SCD (vs control, Affymetrix probe set 11715561_s_at): 2.01
Fold change, SCD (vs control, Affymetrix probe set 11715562_x_at): 2.02
Fold change, SCD (vs control, Affymetrix probe set 11715563_s_at): 2.07
Fold change, FADS1 (vs control, Affymetrix probe set 11752670_a_at): 2.04
Fold change, FADS1 (vs control, Affymetrix probe set 11755251_x_at): 2.19
REadj2, APOD [1]: 174.26
REadj2, DHCR24 [1]: 178.12
REadj2, HACD1 [1]: 516.24
REadj2, NEU1 [1]: 495.48
REadj2, SERINC2 [1]: 245.33
REadj2, TM7SF2 [1]: 88.53
REadj2, TXNRD1 [1]: 1384.05
REadj2, SCD (relative expression adjusted to detection limit (<20), Affymetrix probe set 11715561_s_at): 277.57
REadj2, SCD (relative expression adjusted to detection limit (<20), Affymetrix probe set 11715562_x_at): 302.56
REadj2, SCD (relative expression adjusted to detection limit (<20), Affymetrix probe set 11715563_s_at): 241.64
REadj2, FADS1 (relative expression adjusted to detection limit (<20), Affymetrix probe set 11752670_a_at): 1734.26
REadj2, FADS1 (relative expression adjusted to detection limit (<20), Affymetrix probe set 11755251_x_at): 1114.87

Source: patent US20220267380A1, “Glycopeptides Increasing Lipid Synthesis” (TFCHEM, priority 2019, published 2022)
